Measured values published in US20090131465A1, “Synthesis and crystalline forms of melanocortin-4 receptor agonist” (priority 2007, published 2009).

Legend:
[1] = aqueous solubility of the crystalline form (statement only, no method); assay type: physicochemical; conditions: qualitative statement, no conditions given
[2] = chemical and physical stability of the crystalline form (statement only, no method); assay type: physicochemical; conditions: qualitative statement, no conditions given

aqueous solubility [1]: good
chemical and physical stability [2]: good
SMILES: CC(=O)NC(C)(C)[C@@H]1CC2(CCN(C(=O)[C@@H]3CN(C(C)(C)C)C[C@H]3c3ccc(F)cc3F)CC2)c2cc(Cl)c(C)cc21.Cl [N-[1-((3R)-1′-1′-{[(3S,4R)-1-tert-butyl-4-(2,4-difluorophenyl)pyrrolidine-3-yl]carbonyl}-6-chloro-5-methyl-2,3-dihydrospiro[indene-1,4′-piperidine]-3-yl)-1-methylethyl]acetamide]
